# In ChEMBL document CHEMBL1275549, “A new tetracycline efflux gene, tet(40), is located in tandem with tet(O/32/O) in a human gut firmicute bacterium and in metagenomic library clones” (Antimicrob Agents Chemother, 2008):
# Experiments:
# [1] = tested on: Escherichia coli; assay: Antibacterial activity against Escherichia coli EPI300 harboring plasmid GEM-T expressing tet(40) gene after 16 hrs; type: functional, organism-based; settings: EPI300, 16 h
# [2] = tested on: Escherichia coli; assay: Antibacterial activity against Escherichia coli EPI300 expressing tet(40) gene assessed as bacterial growth at 80 ug/ml after 18 hrs in presence of 2.5 ug/ml efflux pump inhibitor […]
# [3] = tested on: Escherichia coli; assay: Antibacterial activity against Escherichia coli EPI300 expressing tet(W) gene assessed as bacterial growth at 60 ug/ml after 18 hrs in presence of 2.5 ug/ml efflux pump inhibitor CCCP
# [4] = tested on: Escherichia coli; assay: Antibacterial activity against Escherichia coli EPI300 expressing tet(40) gene assessed as bacterial growth at 60 ug/ml after 18 hrs in presence of 2.5 ug/ml efflux pump inhibitor CCCP
# [5] = tested on: Escherichia coli; assay: Antibacterial activity against Escherichia coli EPI300 expressing tet(W) gene assessed as inhibition of bacterial growth at 40 ug/ml after 18 hrs in presence of 2.5 ug/ml efflux pump inhibitor CCCP; values are per cent of control
# [6] = tested on: Escherichia coli; assay: Antibacterial activity against Escherichia coli EPI300 expressing tet(W) gene assessed as inhibition of bacterial growth at 80 ug/ml after 18 hrs in presence of 2.5 ug/ml efflux pump inhibitor CCCP; values are per cent of control
# [7] = tested on: Escherichia coli; assay: Antibacterial activity against Escherichia coli EPI300 expressing tet(40) gene assessed as inhibition of bacterial growth at 40 ug/ml after 18 hrs in presence of 2.5 ug/ml efflux pump inhibitor CCCP; values are per cent of control
smiles,measurement,setting,value
CN(C)[C@@H]1C(O)=C(C(N)=O)C(=O)[C@@]2(O)C(O)=C3C(=O)c4c(O)cccc4[C@@](C)(O)[C@H]3C[C@@H]12 [TETRACYCLINE],IC50,[1],60 µg/mL
same,"growth, % of control",[2],16.5%
same,"growth, % of control",[3],99.2%
same,"growth, % of control",[4],53.4%
same,"growth, % of control",[5],96.4%
same,"growth, % of control",[6],75.4%
same,"growth, % of control",[7],56.5%
